In patent US20220112479A1, “COMPOUNDS STABILIZING AMYLASES IN LIQUIDS” (BASF SE, priority 2018, published 2022):

How the values were obtained:
[1] = tested on: Amy1=Stainzyme; assay: amylase storage stability in liquid formulation (pNP release from Ethyliden-blocked-pNPG7); format: biochemical; design: key: % of activity in reference formulation at time 0; conditions: storage at 37° C.
Method: (§1) The storage stability of amylase was assessed at 37° C. Base test formulations were manufactured by making base formulations I to V by mixing the components according to Table 1. Amylases used: Amy1=Stainzyme, Amy2=Amplify, Amy3=Stainzyme Plus L (12L) The respective component (a) or comparative compound was added, if applicable, to the respective base formulation in amounts as indicated in Table 1. The amount of amylase as provided in Table 1 refers to active protein. Water was added to accomplish the balance to 100. […] Amylase activity at certain points in time as indicated in Table 2 was measured quantitatively by the release of the chromophore para-nitrophenol (pNP) from the substrate ([…]-blocked-pNPG7, Roche Applied Science 10880078103). The alpha-amylase degrades the substrate into smaller molecules and α-glucosidase (Roche Applied Science 11626329103), which is present in excess compared to the amylase, process these smaller products until pNP is released; the release of pNP, measured via an increase of absorption at 405 nm, is directly proportional to the amylase activity of the sample. Amylase standard: […] 120 L (Sigma 3403). […] The amylolytic activity values provided were calculated referring to the value determined in the reference formulation at the time 0. The nomenclature of formulations is as follows: the Roman number before the full stop characterizes the base formulation, the Arabian number the type of compound (A.# compound according to invention (component (a)); B.# comparative compound).

[2] = tested on: Amy2=Amplify; assay: as above; format: biochemical; design: key: % of activity in reference formulation at time 0; conditions: storage at 37° C.
Method: as §1

[3] = base formulation I., 1.5 wt % component (a), 3 d
[4] = base formulation I., 1.5 wt % component (a), 7 d
[5] = base formulation I., 1.5 wt % component (a), 14 d
[6] = base formulation I., 1.5 wt % component (a), 21 d
[7] = base formulation I., 1.5 wt % component (a), 28 d
[8] = base formulation I., 1.5 wt % component (a), 42 d
[9] = base formulation I., 1.5 wt % component (a), T0
[10] = base formulation IV., 2.0 wt % component (a), 3 d
[11] = base formulation IV., 2.0 wt % component (a), 7 d
[12] = base formulation IV., 2.0 wt % component (a), 14 d
[13] = base formulation IV., 2.0 wt % component (a), 21 d
[14] = base formulation IV., 2.0 wt % component (a), 28 d
[15] = base formulation IV., 2.0 wt % component (a), 42 d
[16] = base formulation IV., 2.0 wt % component (a), T0
[17] = base formulation III., 1.5 wt % component (a), 3 d
[18] = base formulation III., 1.5 wt % component (a), 7 d
[19] = base formulation III., 1.5 wt % component (a), 14 d
[20] = base formulation III., 1.5 wt % component (a), 21 d
[21] = base formulation III., 1.5 wt % component (a), 28 d
[22] = base formulation III., 1.5 wt % component (a), 42 d
[23] = base formulation III., 1.5 wt % component (a), T0
[24] = base formulation V., 2.0 wt % component (a), 3 d
[25] = base formulation V., 2.0 wt % component (a), 7 d
[26] = base formulation V., 2.0 wt % component (a), 14 d
[27] = base formulation V., 2.0 wt % component (a), 21 d
[28] = base formulation V., 2.0 wt % component (a), 28 d
[29] = base formulation V., 2.0 wt % component (a), 42 d
[30] = base formulation V., 2.0 wt % component (a), T0

| Compound | amylase activity, referring to reference formulation at time 0 [1, 3] | amylase activity, referring to reference formulation at time 0 [1, 4] | amylase activity, referring to reference formulation at time 0 [1, 5] | amylase activity, referring to reference formulation at time 0 [1, 6] | amylase activity, referring to reference formulation at time 0 [1, 7] | amylase activity, referring to reference formulation at time 0 [1, 8] | amylase activity, referring to reference formulation at time 0 [1, 9] | amylase activity, referring to reference formulation at time 0 [2, 17] | amylase activity, referring to reference formulation at time 0 [2, 18] | amylase activity, referring to reference formulation at time 0 [2, 19] | amylase activity, referring to reference formulation at time 0 [2, 20] | amylase activity, referring to reference formulation at time 0 [2, 21] | amylase activity, referring to reference formulation at time 0 [2, 22] | amylase activity, referring to reference formulation at time 0 [2, 23] | amylase activity, referring to reference formulation at time 0 [2, 24] | amylase activity, referring to reference formulation at time 0 [2, 25] | amylase activity, referring to reference formulation at time 0 [2, 26] | amylase activity, referring to reference formulation at time 0 [2, 27] | amylase activity, referring to reference formulation at time 0 [2, 28] | amylase activity, referring to reference formulation at time 0 [2, 29] | other results |
| --- | --- | --- | --- | --- | --- | --- | --- | --- | --- | --- | --- | --- | --- | --- | --- | --- | --- | --- | --- | --- | --- |
| CCOC(=O)CC(O)(CC(=O)OCC)C(=O)OCC [A.1, Triethylcitrate] | 98 | 93 | 88 | 80 | 74 | 61 | 100 | 98 | 95 | 91 | 86 | 78 | 68 | 100 | 96 | 91 | 87 | 80 | 73 | 62 | amylase activity, referring to reference formulation at time 0 [1, 10]: 96; amylase activity, referring to reference formulation at time 0 [1, 11]: 92; amylase activity, referring to reference formulation at time 0 [1, 12]: 88; amylase activity, referring to reference formulation at time 0 [1, 13]: 83; amylase activity, referring to reference formulation at time 0 [1, 14]: 73; amylase activity, referring to reference formulation at time 0 [1, 15]: 61; amylase activity, referring to reference formulation at time 0 [1, 16]: 98; amylase activity, referring to reference formulation at time 0 [2, 30]: 98 |
| CCCOC(=O)CC(O)(CC(=O)OCCC)C(=O)OCCC [A.2, Tripropylcitrate] | 100 | 96 | 90 | 84 | 79 | 66 | 101 | 102 | 97 | 93 | 87 | 81 | 71 | 100 | 95 | 90 | 84 | 76 | 66 | 54 | amylase activity, referring to reference formulation at time 0 [2, 30]: 98 |
| CCOC(=O)CC(CC(=O)OCC)(OC(C)=O)C(=O)OCC [A.5, Acetyltriethylcitrate] | 91 | 80 | 72 | 63 | 55 | 37 | 97 | 96 | 92 | 87 | 78 | 71 | 55 | 96 | – | – | – | – | – | – | – |
| Diethylcitrate [A.7] | 96 | 86 | 81 | 74 | 63 | 50 | 99 | 96 | 91 | 85 | 78 | 70 | 60 | 98 | 96 | 87 | 74 | 63 | 55 | 47 | amylase activity, referring to reference formulation at time 0 [1, 10]: 94; amylase activity, referring to reference formulation at time 0 [1, 11]: 88; amylase activity, referring to reference formulation at time 0 [1, 12]: 82; amylase activity, referring to reference formulation at time 0 [1, 13]: 74; amylase activity, referring to reference formulation at time 0 [1, 14]: 63; amylase activity, referring to reference formulation at time 0 [1, 15]: 52; amylase activity, referring to reference formulation at time 0 [1, 16]: 99; amylase activity, referring to reference formulation at time 0 [2, 30]: 98 |
